Experimental data reported in patent publication US12171755B2, “PAPD5 inhibitors and methods of use thereof” (Children's Medical Center Corporation, priority 2017, dated 2024).

Biological target: T1, PAPD5 (Homo sapiens, UniProt Q8NDF8)
T1 construct: made in house
Test: High-throughput luminescence (KinaseGlo) RNA polyadenylation assay, ATP utilization by recombinant PAPD5
Type: biochemical
Settings: Table 4 (entries of Table 5), ratio of luminescence with inhibitor to DMSO; for Fold-change determined at compound concentration 33 μM: 33 μM compound; for Fold-change determined at compound concentration 100 μM: 100 μM compound, higher = higher inhibition
Procedure, shortened: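 Values are ratios of inhibitor to DMSO luminescence, so larger numbers mean less ATP consumed. Screening was run in duplicate with a 2 h room-temperature reaction of recombinant PAPD5, ATP and oligo RNA substrate plus compound. Residual ATP was detected after a 10 min KinaseGlo step.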

T1 sequence (Q8NDF8 68-698 isoform Q8NDF8-5): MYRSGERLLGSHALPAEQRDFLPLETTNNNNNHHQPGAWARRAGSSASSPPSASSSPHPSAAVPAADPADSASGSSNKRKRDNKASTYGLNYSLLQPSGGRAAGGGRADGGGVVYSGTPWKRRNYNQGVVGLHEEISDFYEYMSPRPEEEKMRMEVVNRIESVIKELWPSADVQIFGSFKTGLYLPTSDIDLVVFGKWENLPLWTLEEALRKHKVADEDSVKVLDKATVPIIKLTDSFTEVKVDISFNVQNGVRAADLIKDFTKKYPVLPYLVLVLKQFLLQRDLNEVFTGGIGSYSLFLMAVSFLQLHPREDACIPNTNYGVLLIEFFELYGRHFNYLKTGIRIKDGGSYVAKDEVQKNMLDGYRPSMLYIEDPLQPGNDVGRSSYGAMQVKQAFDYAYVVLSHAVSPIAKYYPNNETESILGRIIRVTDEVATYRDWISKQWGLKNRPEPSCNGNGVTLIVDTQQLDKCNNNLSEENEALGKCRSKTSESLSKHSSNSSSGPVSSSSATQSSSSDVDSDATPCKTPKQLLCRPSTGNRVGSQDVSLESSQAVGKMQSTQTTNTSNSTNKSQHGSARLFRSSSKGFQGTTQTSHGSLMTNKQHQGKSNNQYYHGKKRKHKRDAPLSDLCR

Row | Compound | Fold-change determined at compound concentration 33 μM | Fold-change determined at compound concentration 100 μM
1 | Cc1ccc2cccc(NC(=O)c3cccnc3)c2n1 [Entry 86, N-(2-methylquinolin-8-yl)nicotinamide] | 1.085 | 1.233
2 | COc1c2[nH]c3occc3c(OC)c-2ccc1=O [Entry 91, 4,8-dimethoxy-9H-furo[2,3-b]quinolin-7-one] | 1.197 | 1.537
3 | COc1c2ccoc2nc2c(OC)cccc12 [Entry 92, 4,8-dimethoxyfuro[2,3-b]quinoline] | 1.175 | 1.478
4 | Cc1ccc2cc(-c3noc(CCC(=O)Nc4nccs4)n3)c(O)nc2c1 [Entry 94, 3-[3-(2-hydroxy-7-methylquinolin-3-yl)-1,2,4-oxadiazol-5-yl]-N-1,3-thiazol-2-ylpropanamide] | 1.294 | 1.926
5 | Cc1ccc(NC(=O)c2ccc3c(O)c(S(=O)(=O)c4ccc(Cl)cc4)c(=O)[nH]c3c2)cc1 [Entry 95, 3-(4-chlorophenyl)sulfonyl-4-hydroxy-N-(4-methylphenyl)-2-oxo-1H-quinoline-7-carboxamide] | 1.156 | 1.228
6 | O=C(CSc1nc(=O)c2ccccc2[nH]1)NCc1nc2ccccc2[nH]1 [Entry 97, N-(1H-benzimidazol-2-ylmethyl)-2-[(4-oxo-1H-quinazolin-2-yl)sulfanyl]acetamide] | 1.171 | 1.403
7 | COc1ccc(Br)cc1[C@@H]1Nc2ccc(C(=O)O)cc2[C@@H]2C=CC[C@@H]21 [Entry 99, (3aS,4R,9bR)-4-(5-bromo-2-methoxyphenyl)-3a,4,5,9b-tetrahydro-3H-cyclopenta[c]quinoline-8-carboxylic acid] | 1.233 | 1.91
8 | COc1ccc(NS(=O)(=O)c2ccc3c(c2)[C@H]2C=CC[C@H]2[C@@H](c2ccc(C(=O)O)cc2)N3)cc1 [Entry 100, 4-[(3aR,4S,9bS)-8-[(4-methoxyphenyl)sulfamoyl]-3a,4,5,9b-tetrahydro-3H-cyclopenta[c]quinolin-4-yl]benzoic acid] | 1.315 | 2.297
9 | CCOc1cccc2c1N[C@@H](c1ccc(C(=O)O)cc1)[C@H]1CC=C[C@@H]21 [Entry 101, 4-[(3aS,4R,9bR)-6-ethoxy-3a,4,5,9b-tetrahydro-3H-cyclopenta[c]quinolin-4-yl]benzoic acid] | 1.265 | 2.042
10 | O=c1c(S(=O)(=O)c2cccc(F)c2)c[nH]c2c(F)c(Cl)ccc12 [Entry 104, 7-chloro-8-fluoro-3-(3-fluorophenyl)sulfonyl-1H-quinolin-4-one] | 1.048 | 1.235
11 | O=c1c(S(=O)(=O)c2cccc(F)c2)c[nH]c2c(F)ccc(Cl)c12 [Entry 105, 5-chloro-8-fluoro-3-(3-fluorophenyl)sulfonyl-1H-quinolin-4-one] | 1.16 | 1.333
12 | Cc1ccc2c(=O)cc(CSc3ncn[nH]3)[nH]c2c1C [Entry 107, 7,8-dimethyl-2-(1H-1,2,4-triazol-5-ylsulfanylmethyl)-1H-quinolin-4-one] | 1.319 | 1.883
13 | CC1=NCCc2c1[nH]c1ccccc21 [Entry 113, 1-Methyl-4,9-dihydro-3H-beta-carboline] | 1.202 | 1.674
14 | COc1ccc2c(c1)[nH]c1c(C)nccc12 [Entry 114, 7-Methoxy-1-methyl-9H-pyrido[3,4-b]indole] | 1.1 | 1.342

Results, then the compound that gave them:

Row | Fold-change determined at compound concentration 33 μM | Fold-change determined at compound concentration 100 μM | Compound
15 | 1.164 | 1.447 | Cn1c(=O)c2nc(SCC(=O)O)n(CCc3ccccc3)c2n(C)c1=O [Entry 79, 2-[1,3-dimethyl-2,6-dioxo-9-(2-phenylethyl)purin-8-yl]sulfanylacetic acid]
16 | 1.164 | 1.55 | Cn1c(=O)c2nc(SCC(=O)O)n(Cc3ccccc3)c2n(C)c1=O [Entry 80, 2-(9-benzyl-1,3-dimethyl-2,6-dioxopurin-8-yl)sulfanylacetic acid]
17 | 1.107 | 1.288 | Cn1c(=O)c2c(nc(Sc3nnc(NC(=O)c4ccccc4Br)s3)n2C)n(C)c1=O [Entry 81]
18 | 1.122 | 1.306 | Cn1c(=O)c2nc(SCCC(=O)O)n(Cc3ccccc3)c2n(C)c1=O [Entry 82, 3-(9-benzyl-1,3-dimethyl-2,6-dioxopurin-8-yl)sulfanylpropanoic acid]
19 | 1.041 | 1.203 | O=C(O)c1ccccc1C(=O)Nc1ccc(Br)c2cccnc12 [Entry 83, 2-[(5-bromoquinolin-8-yl)carbamoyl]benzoic acid]
20 | 1.12 | 1.568 | Cc1ccc(-c2onc3ccc(-c4cc(C(=O)O)c5ccccc5n4)cc23)cc1 [Entry 84, 2-[3-(4-methylphenyl)-2,1-benzoxazol-5-yl]quinoline-4-carboxylic acid]
21 | 1.061 | 1.252 | Cc1cc(C)c2nc(C)cc(C(=O)O)c2c1 [Entry 85, 2,6,8-trimethylquinoline-4-carboxylic acid]
22 | 1.097 | 1.253 | COc1ccc(NC(=O)c2ccc3c(SCC(=O)O)c4c(nc3c2)CCC4)c(OC)c1 [Entry 87, 2-[[6-[(2,4-dimethoxyphenyl)carbamoyl]-2,3-dihydro-1H-cyclopenta[b]quinolin-9-yl]sulfanyl]acetic acid]
23 | 1.082 | 1.276 | COc1ccc(NC(=O)c2ccc3c(SCC(=O)O)c4c(nc3c2)CCCC4)c(OC)c1 [Entry 88, [(6-{[(2,4-dimethoxyphenyl)amino]carbonyl}-1,2,3,4-tetrahydroacridin-9-yl)thio]acetic acid]
24 | 1.098 | 1.211 | COCCNC(=O)CSc1c2c(nc3cc(Cl)ccc13)CCCC2 [Entry 89, 2-[(6-chloro-1,2,3,4-tetrahydroacridin-9-yl)sulfanyl]-N-(2-methoxyethyl)acetamide]
25 | 1.105 | 1.253 | CCCNC(=O)CSc1c2c(nc3ccc(Cl)cc13)CCCC2 [Entry 90, 2-[(7-chloro-1,2,3,4-tetrahydroacridin-9-yl)sulfanyl]-N-propylacetamide]
26 | 1.184 | 1.23 | Cc1ccc(C)c(NC(=O)c2ccc3c(O)c(S(=O)(=O)c4ccc(Cl)cc4)c(O)nc3c2)c1 [Entry 96, (Z)-3-((4-chlorophenyl)sulfonyl)-N-(2,5-dimethylphenyl)-2,4-dihydroxyquinoline-7-carbimidic acid]
27 | 1.97 | 2.765 | O=C(O)C1Nc2ccc(Cl)cc2C2C=CCC12 (centres unmarked) [Entry 98, 8-Chloro-3a,4,5,9b-tetrahydro-3H-cyclopenta[c]quinoline-4-carboxylic acid]
28 | 1.066 | 1.268 | Cc1cc(C)c2c(=O)cc(CSc3nnc(-c4ccccc4)n3C)[nH]c2c1 [Entry 102, 5,7-dimethyl-2-[(4-methyl-5-phenyl-1,2,4-triazol-3-yl)sulfanylmethyl]-1H-quinolin-4-one]
29 | 1.04 | 1.218 | CCn1cc(C(=O)O)c(=O)c2cc(F)c(N3CCN(C)CC3)cc21 [Entry 103, 1-ethyl-6-fluoro-7-(4-methylpiperazin-1-yl)-4-oxo-1,4-dihydroquinoline-3-carboxylic acid]
30 | 1.218 | 1.522 | Cc1cc(C)c2c(=O)cc(CSc3nnc(-c4cccc(F)c4)n3C)[nH]c2c1 [Entry 106, 2-[[5-(3-fluorophenyl)-4-methyl-1,2,4-triazol-3-yl]sulfanylmethyl]-5,7-dimethyl-1H-quinolin-4-one]
31 | 1.256 | 1.547 | CN(C)S(=O)(=O)c1ccc2c(c1)c(C(=O)n1ccnc1)cn2C [Entry 108, 3-(I-Imidazole-1-carbonyl)-N,N,1-trimethylindole-5-sulfonamide]
32 | 1.076 | 1.231 | COc1ccc(OC)c(NC(=O)Cc2c(C(=O)O)[nH]c3ccc(Cl)cc23)c1 [Entry 109, 5-chloro-3-[2-(2,5-dimethoxyanilino)-2-oxoethyl]-1H-indole-2-carboxylic acid]
33 | 1.126 | 1.298 | CCc1ccccc1NC(=O)Cc1c(C(=O)O)[nH]c2ccc(Cl)cc12 [Entry 110, 5-chloro-3-[2-(2-ethylanilino)-2-oxoethyl]-1H-indole-2-carboxylic acid]
34 | 1.78 | 2.308 | Cc1nc[nH]c1CN1CCc2c(c3ccccc3n2C)C1=O [Entry 111, 5-methyl-2-((4-methyl-1H-imidazol-5-yl)methyl)-2,3,4,5-tetrahydro-1H-pyrido[4,3-b]indol-1-one]
